Reference: US20080171710A1, “The Redox/Fyn/c-Cbl Pathway” (priority 2007, published 2008)

Experiments:
O-2A/OPCs [1] = experiment: MTT+ cells in EtOH-exposed O-2A/OPCs; format: cell-based, rat; settings: cells infected with empty virus; 0.5% EtOH, 72 hrs
Experimental: Twenty-four hr after transfection, medium was changed into DMEM/F12(SATO-) supplemented with 10 ng/ml PDGF-AA. Virus supernatant was collected forty-eight hr post-transfection, filtered through 0.45 um filter to remove non-adherent cells and cellular debris, frozen in small aliquots on dry ice, and stored at −80° C. Twenty-four hr prior to infection with either DN-c-Cbl virus or backbone virus, O-2A cells were seeded. The following day, the culture media was aspirated and replaced with virus supernatant diluted 1:1 in the O-2A growth media. Media was then changed into O-2. A growth media after eight hr or overnight. Twenty-four hr after infection, the cells were collected by trypsinization and reseeded in the selective media (growth media+200 ng/ml puromycin). By the next day, all non-infected cells were floating and presumably dead or dying. The infected cells were allowed to proliferate for two days, and then collected and re-seeded for these experiments.

TrkC = format: cell-based, rat
From the text: (§1) Anti-phosphorylated Erk monoclonal, anti-Erk monoclonal, anti-TrkC polyclonal anti-Fyn polyclonal, anti-EGFR polyclonal, anti-c-Met polyclonal, anti-phospho-tyrosine monoclonal, and anti-PDGFRα polyclonal antibodies were obtained from Santa Cruz Biotechnology (Santa Cruz, Calif., United States). Anti-c-Cbl monoclonal antibody was obtained from BD PharMingen (San Diego, Calif., United States). Anti-phosphorylated Akt monoclonal and anti-Akt polyclonal antibodies were obtained from Cell Signaling Technology (Beverly, Mass., United States). Anti-phosphorylated PDGPRα polyclonal antibody was obtained from Biosource (Carlsbad, Calif., United States). The cell culture samples were collected and lysed in RAPI buffer, whereas dissected tissue samples were sonicated in RAPI buffer. Samples were resolved on SDS-PAGE gels and transferred to PVDF membranes (PerkinElmer Life Science. Wellesley, Mass., United States), After being blocked in 5% skim milk in PBS containing 0.1% Tween 20, membranes were incubated with a primary antibody, followed by incubation with an HRP-conjugated secondary antibody (Santa Cruz Biotechnology). Membranes were visualized using Western Blotting Luminol Reagent (Santa Cruz Biotechnology). All analyses of signaling pathway components were conducted in the presence of ligand for the receptor pathway under analysis (either PDGF-AA for PDGFRα, NT-3 or TrkC, HGF for c-Met, or EGF for EGFR).

c-Met = format: cell-based, rat
From the text: as §1

EGFR = format: cell-based, rat
From the text: as §1

Fyn [2] = format: cell-based, rat; settings: EtOH exposure 30 min
Erk1/2 = format: cell-based, rat
Experimental: (§2) Cells were deprived of PDGF-AA for 5 h before re-exposure to PDGF-AA (10 ng/ml) for 1 h for Western blot or 6 h for luciferase assays of pathway activation. Transient transfection was performed using Fugene6 (Roche, Basel, Switzerland ) transfection solution according to the manufacturer's protocol. For the luciferase assay, cells seeded in 12-well plates were transfected with a reporter plasmid SRE-Luc(firefly) or NF-κB-Luc(firefly) (BD-Clontech, Palo Alto, Calif., United States) and an internal control plasmid pRLSV40-LUC. Analyses of luciferase activity were performed according to the protocol of the Dual Luciferase Assay System (Promega, Madison, Wis., United States), which uses an internal control of Renilla luciferase for quantification, and relative light units were measured using a luminometer.
as §1

Akt = format: cell-based, rat
Experimental: as §2, §1

c-Cbl [3] = format: cell-based, rat
Experimental: (§3) For the co-immunoprecipitation assay, anti-c-Cbl monoclonal antibody (BD PharMingen) or anti-PDGFRα polyclonal antibody (Santa Cruz Biotechnology) was added to the pre-cleared cell lysates (250 μg of total protein), and the mixtures were gently rocked for 2 h at 4° C. A total of 30 μl of protein A/G agarose was then added to the mixture followed by rotating at 4° C. overnight. The protein A/G agarose was then spun down and washed thoroughly three times. The precipitates were resolved on an 8% SDS-PAGE gel and then were subjected to Western blot analysis using an anti-p-Tyr (for c-Cbl phosphorylation assay) or ubiquitin (for PDGFR ubiquitylation assay) antibody (Santa Cruz Biotechnology).

PDGFRα [4] = format: cell-based, rat; settings: for effect on MeHg-induced reductions in levels of PDGFRα: together with MeHg; for effect on Pb- and paraquat-induced reductions in levels of PDGFRα: together with Pb (1 μM) or paraquat (5 μM)
O-2A/OPCs [5] = experiment: Clonal analysis of division and differentiation; format: cell-based, rat; settings: co-exposure with MeHg; 1 mM NAC or PP1
Experimental: O-2A/OPCs purified from P7 rat optic nerve were plated in. poly-L-lysine-coated 25-cm^2 flasks at clonal density with DMBM medium in the presence of 10-ng/ml PDGF as previously described. After 24-h recovery, cells were treated with different toxicants, each for 3 d, until visual inspection and immunostaining was performed. NAC was added 1 h before exposure to other toxicants for NAC pretreatment, and NAC co-exists throughout the culture period. The numbers of O-2A/OPCs and oligodendrocytes in each clone were determined by counting under fluorescent microscope. […] Experiments were performed in triplicate in at least two independent experiments.

O-2A/OPCs [6] = experiment: In vitro BrdU incorporation assay; format: cell-based, rat
Experimental: Cell proliferation was assessed by bromodeoxyuridine (BrdU) incorporation and by using the mouse anti-BrdU mAb IgGl (1:100; Sigma) to label dividing cells. Stained cells on cover slips were rinsed two times in 1×PBS, counterstained with 4′6-diamidino-2-phenylindole (DAPI; Molecular Probes, Eugene, Oreg., United States) and mounted on glass slides with Fluoromount (Molecular Probes). Staining against surface proteins was performed on cultures of living cells or on cells fixed with 2% paraformaldehyde. Staining with intracellular antibodies was performed by permeabilizing cells with ice-cold methanol for 4 min or by using 0.5% Triton for 15 mm on 2% parafomaldhyde-fixed cells. Antibody binding was detected with appropriate fluorescent dye-conjugated secondary antibodies at 10 μg/ml (Southern Biotech, Birmingham, Ala., United States) or Alexa Fluor-coupled antibodies at a concentration of 1 μg/ml (Molecular Probes), applied for 20 min. Anti-BrdU monoclonal antibody was obtained from Sigma.

PDGFRα [7] = experiment: PDGFR ubiquitylation (immunoprecipitation assay); format: cell-based, rat; settings: co-exposure with MeHg
Experimental: as §3

Fyn [8] = target: T1, Fyn (Rattus norvegicus, UniProt Q62844); format: cell-based
T1 construct: 250 μg of total cell lysates were immunoprecipitated with anti-Fyn antibody; endogenous in cells; host or cells: primary rat O-2A/OPCs
Experimental: Fyn kinase activity was quantified using the Universal Tyrosine Kinase Assay Kit (Takara, Madison, Wis., United States). O-2A/OPCs exposed to different treatments were solubilized with an equal volume of the extraction buffer provided with the kit for 15 min, and the resulting lysates were centrifuged at 13,000×g for 15 min at 4° C.; 250 μg of total cell lysates were immunoprecipitated with anti-Fyn antibody (Santa Cruz Biotechnology). Following immunoprecipitation, Fyn immune complexes were washed four times with extraction buffer, and then Fyn kinase activities of each sample were assayed using the kit according to the manufacturer's instructions.

cancer cells = experiment: Cancer cell viability (MTT assays), FIG. 22; format: cell-based; settings: TMX 1-50 μM, 48 hours
MDA-MB-231 cell = MDA-MB-231 cell division by BrdU incorporation; format: cell-based; settings: NAC 1 mM or PP1 200 nM with 20 μM tamoxifen, 48 hours
Experimental: It has been reported that c-Cbl induced down-regulation of EGFR is disabled in cancer cells (Hirsch DS, Shen. Y, Wu WJ, (2006) Cancer Res. Apr 1;66(7):3523-30). Thus, growth and motility inhibition of breast cancer cells by EGFR degradation is correlated with inaetivation of Cdc42. […] Cells were cultured in phenol red-free growth media and exposed to TMX (0, 1 μM, 10 μM, 20 μM and 50 μM) for 48 hours, with or without 1 mM NAC. In FIG. 22C. MDA-MB-231 cell division was analyzed by BrdU incorporation analysis. […] Percentage of Brdu+ cells from DAPI+ cells was determined in each sample.

PDGFRα [9] = experiment: PDGFRα phosphorylation (Western blot, anti-PDGFRα(pY742)); format: cell-based, rat; settings: co-exposure with MeHg
From the text: The cells were then collected and lysed for Western blotting. […] Cells were lysed for Western blot analysis using anti-PDGFRα(pY742) antibody. The membranes were de-probed and then re-probed with antibody against total PDGFRα and anti-β-tubulin antibody. […]
as §1

Rho kinase = Rho kinase (Rattus norvegicus, UniProt Q63644); settings: concentration of Y27632 used in O-2A/OPCs
Experimental: Rho kinase activity was quantified using the CycLex Rho-Kinase Assay kit (MBL international, Woburn, Mass., United States) as described. Cells were lysed and about 500 μg of total cell Jysates were immunoprecipitated with anti-ROCK1 antibody (Sigma), and the precipitates were re-suspended with kinase reaction buffer provided in the kit. Rho kinase activities of each sample were assayed using the kit according to the manufacturer's instructions.

c-Cbl [10] = experiment: c-Cbl protein level after RNAi (Western blot); format: cell-based, rat; settings: expression of RNAi construct
From the text: (§4) Anti-phosphorylated Erk monoclonal, anti-Erk monoclonal, anti-TrkC polyclonal anti-Fyn polyclonal, anti-EGFR polyclonal, anti-c-Met polyclonal, anti-phospho-tyrosine monoclonal, and anti-PDGFRα polyclonal antibodies were obtained from Santa Cruz Biotechnology (Santa Cruz, Calif., United States). Anti-c-Cbl monoclonal antibody was obtained from BD PharMingen (San Diego, Calif., United States). Anti-phosphorylated Akt monoclonal and anti-Akt polyclonal antibodies were obtained from Cell Signaling Technology (Beverly, Mass., United States). Anti-phosphorylated PDGPRα polyclonal antibody was obtained from Biosource (Carlsbad, Calif., United States). The cell culture samples were collected and lysed in RAPI buffer, whereas dissected tissue samples were sonicated in RAPI buffer. […]
(§5) siRNA target sites were selected by scanning the cDNA sequence for AA dinucleotides via siRNA target finder (Ambion, Austin, Tex., United States). Those 19-nucleotide segments that start with G immediately downstream of AA were recorded and then analyzed by BLAST search to eliminate any sequences with significant similarity to other genes. […]

Fyn [11] = experiment: Fyn protein level after RNAi (Western blot); format: cell-based, rat; settings: expression of RNAi construct
From the text: as §4, §5

[12] = NAC 1 mM, PP1 100 nM or ICI 182,780 200 nM with TMX

T1 sequence (Q62844 whole entry): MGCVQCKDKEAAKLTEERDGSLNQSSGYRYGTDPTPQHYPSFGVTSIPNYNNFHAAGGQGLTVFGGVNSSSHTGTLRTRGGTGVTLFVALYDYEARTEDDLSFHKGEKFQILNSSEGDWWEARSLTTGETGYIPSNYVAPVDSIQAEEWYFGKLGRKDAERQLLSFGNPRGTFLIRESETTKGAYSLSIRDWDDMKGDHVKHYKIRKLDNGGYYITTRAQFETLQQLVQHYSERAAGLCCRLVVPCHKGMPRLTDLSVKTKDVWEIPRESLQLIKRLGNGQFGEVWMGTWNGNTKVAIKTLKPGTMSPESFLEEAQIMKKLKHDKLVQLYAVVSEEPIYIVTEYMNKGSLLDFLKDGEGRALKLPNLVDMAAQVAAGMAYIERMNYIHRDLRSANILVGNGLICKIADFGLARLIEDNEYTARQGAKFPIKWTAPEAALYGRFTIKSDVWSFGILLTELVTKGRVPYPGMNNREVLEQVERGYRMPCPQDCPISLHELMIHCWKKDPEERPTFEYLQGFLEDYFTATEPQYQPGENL
Rho kinase, sequence (Q63644 whole entry): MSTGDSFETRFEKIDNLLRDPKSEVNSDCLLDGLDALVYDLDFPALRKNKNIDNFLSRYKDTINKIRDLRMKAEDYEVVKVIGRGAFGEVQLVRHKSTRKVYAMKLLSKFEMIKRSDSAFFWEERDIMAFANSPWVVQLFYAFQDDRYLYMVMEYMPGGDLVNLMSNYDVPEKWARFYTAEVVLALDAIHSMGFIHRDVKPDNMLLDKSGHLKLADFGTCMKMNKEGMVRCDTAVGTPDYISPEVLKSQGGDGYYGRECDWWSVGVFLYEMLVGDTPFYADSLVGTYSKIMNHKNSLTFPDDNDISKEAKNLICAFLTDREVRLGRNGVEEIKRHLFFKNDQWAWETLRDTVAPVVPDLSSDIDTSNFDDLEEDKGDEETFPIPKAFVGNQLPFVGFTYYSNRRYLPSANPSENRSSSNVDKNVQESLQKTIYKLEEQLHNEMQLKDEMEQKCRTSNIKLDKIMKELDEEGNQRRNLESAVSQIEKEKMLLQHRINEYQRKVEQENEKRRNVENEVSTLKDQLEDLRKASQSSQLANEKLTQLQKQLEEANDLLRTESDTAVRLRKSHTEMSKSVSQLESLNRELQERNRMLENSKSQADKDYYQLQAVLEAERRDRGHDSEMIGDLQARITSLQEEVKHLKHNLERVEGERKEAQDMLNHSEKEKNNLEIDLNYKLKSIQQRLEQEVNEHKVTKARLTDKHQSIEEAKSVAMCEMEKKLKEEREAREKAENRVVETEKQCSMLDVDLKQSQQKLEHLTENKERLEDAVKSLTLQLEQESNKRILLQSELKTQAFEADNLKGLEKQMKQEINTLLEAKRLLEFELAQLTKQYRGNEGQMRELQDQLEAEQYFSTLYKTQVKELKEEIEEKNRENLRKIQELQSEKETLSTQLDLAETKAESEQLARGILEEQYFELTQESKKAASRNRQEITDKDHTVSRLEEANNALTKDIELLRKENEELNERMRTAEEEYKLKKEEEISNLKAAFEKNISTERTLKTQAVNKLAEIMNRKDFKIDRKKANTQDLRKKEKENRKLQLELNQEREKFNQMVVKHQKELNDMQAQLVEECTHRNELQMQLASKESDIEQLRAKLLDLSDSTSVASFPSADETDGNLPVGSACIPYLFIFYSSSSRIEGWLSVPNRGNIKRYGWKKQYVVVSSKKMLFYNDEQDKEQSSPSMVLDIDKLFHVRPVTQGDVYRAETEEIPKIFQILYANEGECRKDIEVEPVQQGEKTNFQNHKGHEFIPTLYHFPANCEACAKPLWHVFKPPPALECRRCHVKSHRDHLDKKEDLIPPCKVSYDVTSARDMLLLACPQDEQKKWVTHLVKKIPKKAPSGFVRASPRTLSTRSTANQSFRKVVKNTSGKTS

CCO [EtOH, ethanol]
decrease in the proportion of cells that were MTT+ (O-2A/OPCs [1]): ~25%
levels of TrkC (TrkC): unaltered
levels of c-Met (c-Met): decreased levels
levels of EGFR (EGFR): decreased levels
Fyn phosphorylation (Fyn [2]): caused Fyn phosphorylation
PDGF-induced phosphorylation of Erk1/2 (Erk1/2): suppression
PDGF-induced phosphorylation of Akt (Akt): suppression
c-Cbl phosphorylation (c-Cbl [3]): caused c-Cbl phosphorylation
levels of PDGFRα (PDGFRα [4]): decreased levels

Cc1ccc(-c2nn(C(C)(C)C)c3ncnc(N)c23)cc1 [PP1]
effect on MeHg-induced suppression of cell division at the clonal level (O-2A/OPCs [5]): blocked
effect on TMX effect on cell proliferation (O-2A/OPCs [6]; with TMX, 2 days): blocked
levels of ubiquitylated PDGFRα in MeHg-treated cells (PDGFRα [7]): marked reduction
effect on TMX-induced activation of Fyn (Fyn [8]; [12]): blocked
effect on MeHg-induced Fyn activation (Fyn [8]; added 1 h before MeHg): blocked
effect on Pb- and paraquat-induced Fyn activation (Fyn [8]; added 1 h before Pb or paraquat): prevented
effect on TMX effects on cancer cells (cancer cells): not blocked
effect on Aβ(1-42) suppression of PDGF-mediated Erk1/2 phosphorylation (Erk1/2; co-exposure with Aβ(1-42)): blocked
effect on MeHg-associated suppression of Erk1/2 phosphorylation (Erk1/2; co-treatment with MeHg): blocked
effect on TMX-induced activation of c-Cbl (c-Cbl [3]; [12]): blocked
effect on MeHg-induced c-Cbl phosphorylation (c-Cbl [3]; added 1 h before MeHg): blocked
effect on Aβ-induced increase in phosphorylated c-Cbl (c-Cbl [3]; co-exposure with Aβ): blocked
rescue from tamoxifen effect on cell division (MDA-MB-231 cell): did not result in any rescue effect
effect on TMX-induced reductions in levels of PDGFRα (PDGFRα [4]; [12]): blocked
effect on Aβ-induced reduction in PDGFRα levels (PDGFRα [4]; co-exposure with Aβ): blocked
effect on MeHg-induced reductions in levels of PDGFRα (PDGFRα [4]): blocked
effect on Pb- and paraquat-induced reductions in levels of PDGFRα (PDGFRα [4]): prevented
effect on MeHg-induced suppression of PDGFRα phosphorylation (PDGFRα [9]): protected

C[C@@H](N)[C@H]1CC[C@H](C(=O)Nc2ccncc2)CC1 [Y27632]
Rho kinase activity (Rho kinase): successfully inhibited
effect on MeHg-associated suppression of BrdU incorporation / cell division (O-2A/OPCs [6]; together with MeHg): did not alter

B1: Fyn-RNAi: Fyn-specific siRNA construct, SEQ ID NO: 1 and 2 (nucleic acid)
chain 1: GTTTGCTCGACTTCTTAAATTCAAGAGATTTAAGAAGTCGAGCAAACTTTTTT
chain 2: AATTAAAAAAGTTTGCTCGACTTCTTAAATCTCTTGAATTTAAGAAGTCGAGCAAACGGCC
modifications: expressed or natural sequence
levels of c-Cbl protein (c-Cbl [10]): had no effects
levels of Fyn protein (Fyn [11]): caused a reduction
effect on MeHg-induced reductions in levels of PDGFRα (PDGFRα [4]): protected
effect on Pb- and paraquat-induced reductions in levels of PDGFRα (PDGFRα [4]): prevented
